Among the data in PubChem BioAssay AID266 (DTP/NCI, 2004) are T/C values, retold here.

In the assay the test system is Nude mice, LX-1 lung xenograft intrarenal, tumor weight T/C. The experiment in a line: NCI In Vivo Anticancer Drug Screen. Data for tumor model Human Lung LX-1 Xenograft (intrarenal inoculation) in NU/NU BALB/C (nude) mice. Particulars: endpoint: mean tumor weight change, higher = larger tumour. The procedure: The antitumor activity of compounds was measured in mice bearing transplantable tumors. Survival or tumor size were measured and the results are expressed as the measurement made in the treated group (T) divided by the measurement made in the vehicle treated control group (C). The tumor model used in this assay is Human Lung LX-1 Xenograft (intrarenal inoculation) in NU/NU BALB/C (nude) mice

Setting [1] is: dose: 150.0 mg/kg/injection, schedule: Q04DX003 (sc), vehicle: saline.
[2] abbreviates: dose: 300.0 mg/kg/injection, schedule: Q04DX003 (sc), vehicle: saline.
Where [3] appears, read: dose: 600.0 mg/kg/injection, schedule: Q04DX003 (sc), vehicle: saline.
Where [4] appears, read: dose: 1200.0 mg/kg/injection, schedule: Q04DX003 (sc), vehicle: saline.
Where [5] appears, read: dose: 200.0 mg/kg/injection, schedule: Q04DX003 (sc), vehicle: saline with Tween-80.

“And” between values parts separate entries of the source, which are not always exact repeats. Identical values can stand only once. Inconclusive results are not listed. Starred links: 1 amine or outer side, 2 acyl side, 3 side chain; linkers in the order of their positions; H or OH if unused. Positions of bridges follow the written chain, without caps; N, C: chain ends. Non-standard residues stand in square brackets, D forms with d. Residues, ends and D or L forms follow the SMILES beside them. Chains are numbered I, II in the order given. Actinocin(9to1) = Cc1c2oc3c(C)ccc(C(=O)[*:1])c3nc-2c(C(=O)[*:2])c(N)c1=O; aThr = C[C@H](O)[C@H](N)C(=O)O; NMeV = CN[C@H](C(=O)O)C(C)C; Sar = CNCC(=O)O

As to `Cc1c2oc3c(C)ccc(C(=O)N[C@@H]4C(=O)N[C@H](C(C)C)C(=O)N5CCC[C@H]5C(=O)N(C)CC(=O)N(C)[C@@H](C(C)C)C(=O)O[C@H]4C)c3nc-2c(C(=O)N[C@@H]2C(=O)N[C@H](C(C)C)C(=O)N3CCC[C@H]3C(=O)N(C)CC(=O)N(C)[C@@H](C(C)C)C(=O)O[C@H]2C)c(N)c1=O` (I: [aThr][dV]P[Sar][NMeV] / II: [aThr][dV]P[Sar][NMeV]; ester I:1-I:C, II:1-II:C; linker I:N-II:N via Actinocin(9to1)), the T/C (dose: 50.0 micrograms/kg/injection, schedule: Q01DX010 (sc), vehicle: saline) was 35 % of control and the T/C (dose: 100.0 micrograms/kg/injection, schedule: Q01DX010 (sc), vehicle: saline) is 11 % of control.

As for `CC1(CO)C(O)CCC2(C)C1CCC1CC3CC12CCC3(O)CO` (stereo not given), the T/C runs as follows: (dose: 50.0 mg/kg/injection, schedule: Q01DX010 (sc), vehicle: saline with Tween-80) 86 % of control; (dose: 400.0 mg/kg/injection, schedule: Q01DX010 (sc), vehicle: saline with Tween-80) 34 % of control.

Regarding `CC1=CC2c3cccc4[nH]cc(c34)CC2N(C)C1` (stereo not given), the T/C (dose: 6.25 mg/kg/injection, schedule: Q04DX003 (ip), vehicle: suspension in saline) is 93 % of control; the T/C (dose: 12.5 mg/kg/injection, schedule: Q04DX003 (ip), vehicle: suspension in saline) was 111 % of control; the T/C (dose: 25.0 mg/kg/injection, schedule: Q04DX003 (ip), vehicle: suspension in saline) was 115 % of control; the T/C (dose: 50.0 mg/kg/injection, schedule: Q04DX003 (ip), vehicle: suspension in saline) is 115 % of control.

`CCN(CC)CCOCCO`: the T/C was 109 % of control under setting [1], 105 % of control under setting [2], 86 % of control under setting [3] and 77 % of control under setting [4].

Regarding `OC1(CSc2ccccc2)CCCCC1`, the T/C runs as follows: under setting [5], 75 % of control; (dose: 400.0 mg/kg/injection, schedule: Q04DX003 (sc), vehicle: saline with Tween-80) 85 % of control; (dose: 800.0 mg/kg/injection, schedule: Q04DX003 (sc), vehicle: saline with Tween-80) 82 % of control; (dose: 1600.0 mg/kg/injection, schedule: Q04DX003 (sc), vehicle: saline with Tween-80) 90 % of control.

Consider `FC(F)(F)c1nc2nc(Cl)c(Cl)nc2[nH]1`, for which the T/C is, setting by setting: (dose: 75.0 mg/kg/injection, schedule: Q04DX003 (sc), vehicle: saline with Tween-80) 116 % of control; (dose: 150.0 mg/kg/injection, schedule: Q04DX003 (sc), vehicle: saline with Tween-80) 74 % of control; (dose: 300.0 mg/kg/injection, schedule: Q04DX003 (sc), vehicle: saline with Tween-80) 68 % of control.

Turning to `O=NN(CCCl)C(=O)NC1OC(CO)C(O)C(O)C1O` (stereo not given), the T/C (dose: 5.0 mg/kg/injection, schedule: Q04DX003 (sc), vehicle: saline) is 86 % of control; the T/C (dose: 10.0 mg/kg/injection, schedule: Q04DX003 (sc), vehicle: saline) is 55 % of control; the T/C (dose: 20.0 mg/kg/injection, schedule: Q04DX003 (sc), vehicle: saline) is 66 % of control.

As to `CN(CO)c1nc(N(C)CO)nc(N(C)CO)n1`, the T/C was 71 % of control (dose: 6.25 mg/kg/injection, schedule: Q01DX010 (sc), vehicle: saline); 100 % of control (dose: 25.0 mg/kg/injection, schedule: Q01DX010 (sc), vehicle: saline); 122 % of control (dose: 50.0 mg/kg/injection, schedule: Q01DX010 (sc), vehicle: saline).

For `C=CC(C)NC(=S)NNC(=S)NC` (stereo not given), the T/C runs as follows: (dose: 300.0 mg/kg/injection, schedule: Q04DX003 (sc), vehicle: saline + alcohol) 115 % of control; (dose: 600.0 mg/kg/injection, schedule: Q04DX003 (sc), vehicle: saline + alcohol) 87 % of control; (dose: 1200.0 mg/kg/injection, schedule: Q04DX003 (sc), vehicle: saline + alcohol) 87 % of control; (dose: 2400.0 mg/kg/injection, schedule: Q04DX003 (sc), vehicle: saline + alcohol) 78 % of control.

For the compound `c1ccc2c(NCCCCCCCCNc3c4ccccc4nc4ccccc34)c3ccccc3nc2c1`, the T/C (dose: 5.0 mg/kg/injection, schedule: Q01DX010 (sc), vehicle: Klucel (hydroxypropylcellulose) (HPC)) was 60 % of control; the T/C (dose: 10.0 mg/kg/injection, schedule: Q01DX010 (sc), vehicle: Klucel (hydroxypropylcellulose) (HPC)) is 76 % of control; the T/C (dose: 20.0 mg/kg/injection, schedule: Q01DX010 (sc), vehicle: Klucel (hydroxypropylcellulose) (HPC)) is 23 % of control; the T/C (dose: 40.0 mg/kg/injection, schedule: Q01DX010 (sc), vehicle: Klucel (hydroxypropylcellulose) (HPC)) is 36 % of control.

As for `CO[C@H](/C(C)=C/C=C/C(C)=C/c1coc(C)n1)[C@H](C)[C@H]1C[C@@H](O)[C@@]2(C)O[C@H]2/C=C/[C@@H](C)[C@@H]2C[C@@H](CC(=O)O2)C[C@H]2O[C@@H]2C(=O)O1`, the T/C is 105 % of control (dose: 0.13 mg/kg/injection, schedule: Q04DX003 (sc), vehicle: Klucel (hydroxypropylcellulose) (HPC)) and 95 % of control (dose: 0.25 mg/kg/injection, schedule: Q04DX003 (sc), vehicle: Klucel (hydroxypropylcellulose) (HPC)).

As for `O=C(NO)c1ccccc1`, the T/C is 120 % of control (dose: 100.0 mg/kg/injection, schedule: Q01DX010 (sc), vehicle: Klucel (hydroxypropylcellulose) (HPC)) and 150 % of control (dose: 200.0 mg/kg/injection, schedule: Q01DX010 (sc), vehicle: Klucel (hydroxypropylcellulose) (HPC)).

Turning to `Nc1ccc(S(=O)(=O)Nc2cnc3c(Cl)cccc3n2)cc1`, the T/C was 82 % of control (dose: 150.0 mg/kg/injection, schedule: Q04DX003 (ip), vehicle: DMSO); 89 % of control (dose: 300.0 mg/kg/injection, schedule: Q04DX003 (ip), vehicle: DMSO); 45 % of control (dose: 600.0 mg/kg/injection, schedule: Q04DX003 (ip), vehicle: DMSO).

For the compound `Cn1cnc([N+](=O)[O-])c1[Se]c1nc(N)nc2nc[nH]c12`, the T/C was 64 % of control (dose: 50.0 mg/kg/injection, schedule: Q01DX010 (sc), vehicle: water) and 69 % of control (dose: 100.0 mg/kg/injection, schedule: Q01DX010 (sc), vehicle: water).

Turning to `NC(N)=NOCC[C@@H](N)C(=O)O`, the T/C under setting [2] was 91 % of control; the T/C under setting [3] is 91 % of control; the T/C under setting [4] is 82 % of control; the T/C (dose: 2400.0 mg/kg/injection, schedule: Q04DX003 (sc), vehicle: saline) is 59 % of control.

For the compound `C[C@]12CCC(=O)C(O)=C1CC[C@@H]1[C@@H]2CC[C@]2(C)C(=O)CC[C@@H]12`, the T/C was 61 % of control (dose: 150.0 mg/kg/injection, schedule: Q04DX003 (ip), vehicle: Klucel (hydroxypropylcellulose) (HPC)); 99 % of control (dose: 300.0 mg/kg/injection, schedule: Q04DX003 (ip), vehicle: Klucel (hydroxypropylcellulose) (HPC)); 89 % of control (dose: 600.0 mg/kg/injection, schedule: Q04DX003 (ip), vehicle: Klucel (hydroxypropylcellulose) (HPC)).

In the case of `O=C(O)CP(=O)(O)O`, the T/C is, setting by setting: under setting [2], 105 % of control; under setting [3], 156 % of control; under setting [4], 106 % of control.

Regarding `C[Si](C)(C)O/C=C1\CCCCC1=O`, the T/C (dose: 100.0 mg/kg/injection, schedule: Q04DX003 (sc), vehicle: saline with Tween-80) is 95 % of control and the T/C under setting [5] was 92 % of control.

For `CC(=O)C(=O)O.CC(=O)C(=O)O.[NH-]C1CCCCC1[NH-].[Pt+2]` (stereo not given), the T/C is, setting by setting: (dose: 9.37 mg/kg/injection, schedule: Q04DX003 (sc), vehicle: other) 67 % of control; (dose: 18.75 mg/kg/injection, schedule: Q04DX003 (sc), vehicle: other) 76 % of control; (dose: 37.5 mg/kg/injection, schedule: Q04DX003 (sc), vehicle: other) 80 % of control.

For the compound `CC1CN1C(=O)NCCCCCCNC(=O)N1CC1C` (stereo not given), the T/C (dose: 20.0 mg/kg/injection, schedule: Q04DX003 (sc), vehicle: Klucel (hydroxypropylcellulose) (HPC)) was 68 % of control.

Turning to `CC[C@@]1(O)C(=O)OCc2c1cc1n(c2=O)Cc2cc3ccccc3nc2-1`, the T/C was 15 % of control (dose: 5.0 mg/kg/injection, schedule: Q04DX003 (sc), vehicle: saline with Tween-80); 5 % of control and 12 % of control (dose: 10.0 mg/kg/injection, schedule: Q04DX003 (sc), vehicle: saline with Tween-80); 3 % of control and 4 % of control (dose: 20.0 mg/kg/injection, schedule: Q04DX003 (sc), vehicle: saline with Tween-80).

On to `c1ccc2c(c1)[As]=c1ccccc1=[As]2` (stereo not given), for which the T/C is, setting by setting: (dose: 18.75 mg/kg/injection, schedule: Q04DX003 (sc), vehicle: saline) 58 % of control; (dose: 37.5 mg/kg/injection, schedule: Q04DX003 (sc), vehicle: saline) 46 % of control; (dose: 75.0 mg/kg/injection, schedule: Q04DX003 (sc), vehicle: saline) 50 % of control; under setting [1], 40 % of control.
